Assay type in all cases: cell-based
Assay [1] deals with human breast cancer cell line T-47D. Description: Caspase cascade activation assay in T-47D cells. The conditions noted are these: T47D, 24 h or 48 h incubation, read-out: Caspase Activation Potency EC50 T-47D. On the procedure: (§1) Human breast cancer cell lines T-47D and human lung cancer cell line H1299 were grown according to media component mixtures designated by American Type Culture Collection+10% FCS (Invitrogen Corporation), in a 5% CO2-95% humidity incubator at 37° C. T-47D and H1299 cells were maintained at a cell density between 50 and 80% confluency at a cell density of 0.1 to 0.6×10^6 cells/mL. Cells were harvested at 600×g and resuspended at 0.65×10^6 cells/mL into appropriate media+10% FCS. An aliquot of 22.5 μL of cells was added to a well of a 384-well microtiter plate containing 2.5 μL of a 10% DMSO in RPMI-1640 media solution containing 0.16 to 100 μM of N-(3,4-methylenedioxybenzyl)-6-phenylthieno[3,2-d]pyrimidin-4-amine or other test compound (0.016 to 10 μM final). An aliquot of 22.5 μL of cells was added to a well of a 384-well microtiter plate containing 2.5 μL of a 10% DMSO in RPMI-1640 media solution without test compound as the control sample. The samples were mixed by agitation and then incubated at 37° C. for 24 h or 48 h in a 5% CO2-95% humidity incubator. After incubation, the samples were removed from the incubator and 25 μL of a solution containing 14 μM of N-(Ac-DEVD)-N′-ethoxycarbonyl-R110 (SEQ ID No.:1) fluorogenic substrate (Cytovia, Inc.; WO99/18856), 20% sucrose (Sigma), 20 mM DTT (Sigma), 200 mM NaCl (Sigma), 40 mM Na PIPES buffer pH 7.2 (Sigma), and 500 μg/mL lysolecithin (Calbiochem) was added. The samples were mixed by agitation and incubated at room temperature. Using a fluorescent plate reader (Model SPECTRAfluor Plus, Tecan), an initial reading (T=0) was made approximately 1-2 min after addition of the substrate solution, employing excitation at 485 nm and emission at 530 nm, to determine the background fluorescence of the control sample. After the 3 h incubation, the samples were read for fluorescence as above (T=3 h).
(§2) The Relative Florescence Unit values (RFU) were used to calculate the sample readings as follows: RFU(T=3h)−Control RFU(T=0)=Net RFU(T=3h)
(§3) The activity of caspase cascade activation was determined by the ratio of the net RFU value for N-(3,4-methylenedioxybenzyl)-6-phenylthieno[3,2-d]pyrimidin-4-amine (Example A) or other test compound to that of control samples. The EC50 (nM) was determined by a sigmoidal dose-response calculation (Prism 3.0, GraphPad Software Inc.).

For assay [2], the system named is human lung cancer cell line H1299. Nature of the assay: Caspase cascade activation assay in H1299 cells. As to conditions: NCI-H1299, 24 h or 48 h incubation, read-out: Caspase Activation Potency EC50 H1299. The procedure: as §1, §2, §3
The subject of assay [3] is human breast cancer cell line T-47D. Description: Inhibition of cell proliferation (GI50, CellTiter-Glo) in T-47D cells. The conditions noted are these: T47D cells, 48 h, dose for 50% inhibition of cell proliferation. The procedure:
(§4) Human breast cancer cell lines T-47D, MX-1 and MDAMB435, human colon cancer cell line HT29, and human lung cancer cell line H1299 were grown and harvested as in Example 26. An aliquot of […] of cells (4.4×10^4 cells/mL) was added to a well of a 96-well microtiter plate containing 5 μL of a 10% DMSO in RPMI-1640 media solution containing 10 nM to 100 μM of N-(3,4-methylenedioxybenzyl)-6-phenylthieno[3,2-d]pyrimidin-4-amine (1 nM to 10 μM final). An aliquot of 45 μL of cells was added to a well of a 96-well microtiter plate containing 5 μL of a 10% DMSO in RPMI-1640 media solution without compound as the control sample for maximal cell proliferation (LMax). The samples were mixed by agitation and then incubated at 37° C. for 48 h in a 5% CO2-95% humidity incubator. After incubation, the samples were removed from the incubator and 25 μL of CellTiter-Glo™ reagent (Promega) was added. The samples were mixed by agitation and incubated at room temperature for 10-15 min. Plates were then read using a luminescent plate reader (Model SPECTRAfluor Plus, Tecan) to give Ltest values.
(§5) Baseline for GI50 (dose for 50% inhibition of cell proliferation) of initial cell numbers was determined by adding an aliquot of 45 μL of cells or 45 μL of media, respectively, to wells of a 96-well microtiter plate containing 5 μL of a 10% DMSO in RPMI-1640 media solution. The samples were mixed by agitation and then incubated at 37° C. for 0.5 h in a 5% CO2-95% humidity incubator. After incubation, the samples were removed from the incubator and 25 μL of CellTiter-Glo™ reagent (Promega) was added. The samples were mixed by agitation and incubated at 37° C. for 10-15 min at room temperature in a 5% CO2-95% humidity incubator. Fluorescence was read as above, (Lstart) defining luminescence for initial cell number used as baseline in GI50 determinations.
(§6) GI50 (dose for 50% inhibition of cell proliferation) is the concentration where [(LTest−Lstart)/(LMax−Lstart)]=0.5.
Background: In ATP-based viability assays light output follows the ATP content of the culture.

Assay [4] relates to human breast cancer cell line MX-1. Description: Inhibition of cell proliferation (GI50, CellTiter-Glo) in MX-1 cells. The conditions noted are these: MX1 cells, 48 h, dose for 50% inhibition of cell proliferation. The procedure: as §4, §5, §6
Assay [5] has as its system human breast cancer cell line MDAMB435. Nature of the assay: Inhibition of cell proliferation (GI50, CellTiter-Glo) in MDAMB435 cells. As to conditions: MDA-MB-435, 48 h, dose for 50% inhibition of cell proliferation. On the procedure: as §4, §5, §6
In assay [6] the test system is human lung cancer cell line H1299. Description: Inhibition of cell proliferation (GI50, CellTiter-Glo) in H1299 cells. The conditions noted are these: NCI-H1299, 48 h, dose for 50% inhibition of cell proliferation. The procedure:
as §4, §5, §6

Assay [7] deals with human colon cancer cell line HT29. Description: Inhibition of cell proliferation (GI50, CellTiter-Glo) in HT29 cells. The conditions noted are these: HT-29, 48 h, dose for 50% inhibition of cell proliferation. On the procedure: as §4, §5, §6
Assay [8] has as its system human colon carcinoma cell line HCT116. Nature of the assay: Caspase cascade activation assay in HCT116 cells. The conditions noted are these: HCT-116, 48 h assay, read-out: Caspase Activation Potency EC50 HCT116.
Assay [9] concerns human hepatocellular carcinoma cell line SNU398. Description: Caspase cascade activation assay in SNU398 cells. The conditions noted are these: SNU-398, 48 h assay, read-out: Caspase Activation Potency EC50 SNU398.
Assay [10] has as its system human lymphoma cell line Raji. Description: Caspase cascade activation assay in Raji cells. The conditions noted are these: 48 h assay, read-out: Caspase Activation Potency EC50 Raji.
Assay [11] has as its system human B cell lymphoblastoid cell line Ramos. Description: Caspase cascade activation assay in Ramos cells. The conditions noted are these: 48 h assay, read-out: Caspase Activation Potency EC50 Ramos.
The subject of assay [12] is human Burkitt's lymphoma cell line Namalwa. Description: Caspase cascade activation assay in Namalwa cells. The conditions noted are these: Burkitts lymphoma cell, 48 h assay, read-out: Caspase Activation Potency EC50 Namalwa.

`Ic1cc2ncnc(NCc3ccc4c(c3)OCO4)c2s1` [Example 3, N-(3,4-Methylenedioxybenzyl)-6-iodo-thieno[3,2-d]pyrimidin-4-amine]: the EC50 (in general, the concentration needed to bring the measured effect to its halfway point) in assay [1] is 1560 nM; in assay [2], 5090 nM. Further, the GI50 – broadly, the concentration giving 50% growth inhibition – in assay [3] was 2070 nM; in [4] it was 2500 nM; in assay [5] it was 997 nM; in assay [6], 1040 nM; in [7], 2500 nM.
As to `c1cncc(-c2cc3ncnc(NCc4ccc5c(c4)OCO5)c3s2)c1` [Example 5, N-(3,4-Methylenedioxybenzyl)-6-(pyridin-3-yl)thieno[3,2-d]pyrimidin-4-amine], the EC50 in [1] stood at 563 nM; in assay [2] it was 1600 nM; in assay [8], 2530 nM; in assay [9], 1450 nM; in assay [10], 2760 nM; in [11], 1830 nM. In addition, in assay [12], the EC50 is 1350 nM. For the same compound, the GI50 in assay [3] was found to be 1290 nM; in assay [4] it was 173 nM; in assay [5], 155 nM; in [6] it was 1810 nM; in assay [7], 5240 nM.
With `c1ccc(-c2cc3ncnc(NCc4ccc5c(c4)OCO5)c3s2)cc1` [Example A, N-(3,4-methylenedioxybenzyl)-6-phenylthieno[3,2-d]pyrimidin-4-amine], the EC50 in assay [1] came out at 903 nM; in assay [2] it was 506 nM; in [8], 737 nM; in [9], 738 nM; in [10], 1130 nM; in assay [11] it was 624 nM. The EC50 in assay [12] is 633 nM. Besides, the GI50 amounted to 600 nM in assay [3]; 600 nM in assay [4]; 129 nM in [5]; 600 nM in assay [6]; 600 nM in [7].

Values taken from patent US20070099941A1, “N-arylalkyl-thienopyrimidin-4-amines and analogs as activators of caspases and inducers of apoptosis and the use thereof” (Cytovia, Inc., priority 2005, published 2007).
